In ChEMBL document CHEMBL3638563, “Quinazoline compounds as kinase inhibitors” (2014):

Legend:
[1] = target: Serine/threonine-protein kinase B-raf (Homo sapiens, UniProt P15056); experiment: (§1) Kinase Assay: Inhibition of kinase activity by test compound disclosed herein was estimated by quantifying the amount of [33P] incorporation of substrate in the presence of test compound. Standard assay conditions were 2 ng of recombinant C-Raf or 5 ng of recombinant B-Raf or 5 ng of recombinant B-Raf (V600E) kinase (Upstate Biotechnology) with 500 ng MEK1(K97R) in assay buffer {8 μM ATP, 0.5 μCi [33P]ATP (specific activity 3000 Ci/mmol, PerkinElmer), 50 mM Tris/HCl (pH7.5), and 1 mM EGTA, 1 mM Na3VO4, 1% 2-mercaptoethanol, 0.1% Brij 35, and 0.2 mg/ml BSA} at a final volume of 25 μL. Reactions were incubated at 30° C. for 30 min and stopped by adding 3% phosphoric acid, harvested onto a 96-well GF/B UniFilter (PerkinElmer) using a unifilter harvester (PerkinElmer), and counted with a TopCount microplate scintillation counter (PerkinElmer). The IC50 values of inhibitors were determined after carrying out assays at 3-fold serially diluted concentrations of each compound in duplication.
[2] = target: RAF proto-oncogene serine/threonine-protein kinase (Homo sapiens, UniProt P04049); experiment: as §1
RAF proto-oncogene serine/threonine-protein kinase, sequence (P04049 whole entry): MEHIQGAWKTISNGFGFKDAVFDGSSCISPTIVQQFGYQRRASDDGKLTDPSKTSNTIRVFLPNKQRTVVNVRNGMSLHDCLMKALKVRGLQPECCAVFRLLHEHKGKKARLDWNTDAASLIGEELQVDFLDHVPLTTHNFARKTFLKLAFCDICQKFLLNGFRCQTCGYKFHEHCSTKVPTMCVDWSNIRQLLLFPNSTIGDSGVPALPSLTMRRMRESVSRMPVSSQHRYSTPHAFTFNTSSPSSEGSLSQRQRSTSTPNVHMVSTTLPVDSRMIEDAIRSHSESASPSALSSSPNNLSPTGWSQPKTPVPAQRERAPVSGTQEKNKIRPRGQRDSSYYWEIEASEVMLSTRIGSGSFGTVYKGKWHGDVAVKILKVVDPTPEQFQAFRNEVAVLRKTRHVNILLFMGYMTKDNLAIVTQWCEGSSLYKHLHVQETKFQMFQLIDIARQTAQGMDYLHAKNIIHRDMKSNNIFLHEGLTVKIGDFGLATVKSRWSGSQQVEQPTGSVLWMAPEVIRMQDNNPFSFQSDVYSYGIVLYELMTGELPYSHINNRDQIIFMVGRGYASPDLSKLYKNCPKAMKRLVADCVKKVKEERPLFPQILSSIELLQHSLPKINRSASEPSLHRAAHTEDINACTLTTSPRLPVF

Serine/threonine-protein kinase B-raf, sequence (P15056 whole entry): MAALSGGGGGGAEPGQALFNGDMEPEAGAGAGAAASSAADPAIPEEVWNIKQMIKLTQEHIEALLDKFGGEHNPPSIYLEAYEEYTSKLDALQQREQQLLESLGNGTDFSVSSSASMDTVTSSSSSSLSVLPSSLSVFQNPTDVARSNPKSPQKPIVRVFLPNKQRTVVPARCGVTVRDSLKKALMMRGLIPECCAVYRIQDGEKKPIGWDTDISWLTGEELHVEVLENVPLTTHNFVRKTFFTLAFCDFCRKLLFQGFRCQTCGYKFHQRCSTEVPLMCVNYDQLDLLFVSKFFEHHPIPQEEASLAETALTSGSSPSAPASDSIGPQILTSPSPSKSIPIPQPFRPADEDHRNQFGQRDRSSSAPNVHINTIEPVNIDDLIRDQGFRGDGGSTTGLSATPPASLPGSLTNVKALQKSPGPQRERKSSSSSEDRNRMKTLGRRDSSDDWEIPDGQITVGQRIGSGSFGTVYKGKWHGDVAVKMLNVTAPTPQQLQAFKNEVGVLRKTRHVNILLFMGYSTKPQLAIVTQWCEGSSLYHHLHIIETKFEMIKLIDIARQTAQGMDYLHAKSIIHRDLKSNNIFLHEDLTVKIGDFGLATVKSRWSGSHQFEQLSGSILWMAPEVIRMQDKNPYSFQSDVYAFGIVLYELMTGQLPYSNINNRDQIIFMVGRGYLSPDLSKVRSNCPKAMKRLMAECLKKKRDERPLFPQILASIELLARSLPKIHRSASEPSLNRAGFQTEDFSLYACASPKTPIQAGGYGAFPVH

Work on `Nc1ccc(F)c(-c2ccc3ncnc(Nc4cccc5[nH]ncc45)c3c2)c1` yielded an IC50 [1] of 251 nM and an IC50 [2] of 2370 nM.
